Results taken from patent publication US12509474B2, “Inhibitors of complement factors and uses thereof” (Annexon, Inc., priority 2020, dated 2025).
Counter-ions that a name gives are not always drawn.

Target: T1, human C1s protein (Homo sapiens, UniProt P09871)
T1 construct: A104
T1 sequence (P09871 16-688): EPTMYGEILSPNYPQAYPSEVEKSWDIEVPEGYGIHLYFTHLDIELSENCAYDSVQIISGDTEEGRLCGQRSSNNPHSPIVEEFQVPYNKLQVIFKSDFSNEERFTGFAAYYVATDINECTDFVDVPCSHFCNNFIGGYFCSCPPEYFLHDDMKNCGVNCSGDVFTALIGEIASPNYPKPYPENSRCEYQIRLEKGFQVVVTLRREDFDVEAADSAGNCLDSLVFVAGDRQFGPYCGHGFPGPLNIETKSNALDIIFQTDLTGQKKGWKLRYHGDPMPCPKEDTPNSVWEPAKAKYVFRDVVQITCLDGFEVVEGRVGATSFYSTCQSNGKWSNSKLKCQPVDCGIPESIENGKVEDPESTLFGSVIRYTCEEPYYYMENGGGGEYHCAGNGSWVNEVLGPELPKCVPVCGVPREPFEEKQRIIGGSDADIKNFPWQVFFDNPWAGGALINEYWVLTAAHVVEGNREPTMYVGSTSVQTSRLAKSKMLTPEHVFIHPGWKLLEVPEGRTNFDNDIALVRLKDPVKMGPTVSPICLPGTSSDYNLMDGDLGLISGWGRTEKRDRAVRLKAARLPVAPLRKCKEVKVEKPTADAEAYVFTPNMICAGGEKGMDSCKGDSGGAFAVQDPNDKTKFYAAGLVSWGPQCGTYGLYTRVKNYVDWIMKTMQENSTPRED
Experiment: C1s enzymatic assay (hydrolysis of YLGR-Rh110-dPro)
Assay type: biochemical
Details: substrate YLGR-Rh110-dPro 20 μM, 15 min pre-incubation, 60 min RT, fluorescence, read-out: hC1s pIC50 (converted)
Experimental: Compound Testing in the C1s Enzymatic Assay
The enzyme cleaves the substrate with the release of Rh110 which is highly fluorescent. C1s inhibitors prevent the hydrolysis of the substrate thus resulting in a decrease of the signal.
On the day of the experiment 0.1 mg/mL BSA (Sigma, B4287) is added fresh to the buffer. The test item stock solutions are serially diluted 1:3 or 1:4 or 1:5 with DMSO, 11-point curves, in a 384-well compound plate. Nafamostat concentration curve is always included in the assay plate as a reference control.
The high controls are prepared dispensing in 0.25 μL DMSO in column 23, rows AH or AP and low controls with 0.25 μL of 0.1 M Nafamostat. […] The YLGR-Rh110-dPro substrate is prepared as 2× of the final assay concentration of 20 μM. 1/well of 2× enzyme solution is dispensed and pre-incubated for 15 min with the compounds. The enzymatic reaction is then started with 5 μL/well of the 2× substrate solution.

IC50 [nM] | SMILES
0.851 | Cc1nnc(N)c2ccc(-c3cc(B(O)O)cc4ccoc34)cc12 [Example 104, [7-(1-amino-4-methylphthalazin-6-yl)-1-benzofuran-5-yl]boronic Acid]
17.4 | Cc1nnc(N)c2ccc(-c3ccc4c(c3)B(O)OCC4(F)F)cc12 [Example 66, 6-(4,4-difluoro-1-hydroxy-3H-2,1-benzoxazonin-7-yl)-4-methylphthalazin-1-amine]
3.89 | Nc1cnnc2cc(-c3cc(B(O)O)ccc3OCC3CNC(=O)C3)ccc12 (single isomer, unassigned) [Example 155, [3-(4-aminocinnolin-7-yl)-4-[(5-oxopyrrolidin-3-yl)methoxy]phenyl]boronic Acid]
14.1 | Cc1nnc(N)c2ccc(-c3ccc4c(c3)B(O)OC4)cc12 [Example 14, 6-(1-hydroxy-3H-2,1-benzoxaborol-6-yl)-4-methylphthalazin-1-amine Formic Acid Salt]
6920 | COc1ccc(B(O)O)cc1-c1ccc2nccc(N)c2c1 [Example 129, [3-(4-aminoquinolin-6-yl)-4-methoxyphenyl]boronic Acid Formic Acid Salt]
11200 | Cc1nnc(N)c2ccc(-c3cc(B(O)O)ccc3NC(=O)c3cnsc3)cc12 [Example 87, [3-(1-amino-4-methylphthalazin-6-yl)-4-(1,2-thiazole-4-amido)phenyl]boronic Acid]
6.03 | Nc1cnnc2cc(-c3cc(B(O)O)ccc3OC3CCC(=O)NC3)ccc12 (centres unmarked) [Example 126, [3-(4-aminocinnolin-7-yl)-4-[(6-oxopiperidin-3-yl)oxy]phenyl]boronic Acid]
129 | Cc1nnc(N)c2ccc(-c3c(C(F)(F)F)ccc(B(O)O)c3F)cc12 [Example 68, [3-(1-amino-4-methylphthalazin-6-yl)-2-fluoro-4-(trifluoromethyl)phenyl]boronic Acid]
5.89 | Cc1nnc(N)c2ccc(-c3ccc(NC(=O)C(C)C)c(B(O)O)c3)cc12 [Example 89, [5-(1-amino-4-methylphthalazin-6-yl)-2-(2-methylpropanamido)phenyl]boronic Acid]
269 | COc1ccc(B(O)O)cc1-c1ccc2c(N)nc(C)cc2c1 [Example 22, [3-(1-amino-3-methylisoquinolin-6-yl)-4-methoxyphenyl]boronic Acid]
1.1 | Nc1cnnc2cc(-c3cc(B(O)O)ccc3OCC(F)(F)F)ccc12 [Example 118, [3-(4-aminocinnolin-7-yl)-4-(2,2,2-trifluoroethoxy)phenyl]boronic Acid Formic Acid Salt]
1 | Cc1nnc(N)c2ccc(-c3ccc(NC(=O)c4ccccc4Cl)c(B(O)O)c3)cc12 [Example 93, [5-(1-amino-4-methylphthalazin-6-yl)-2-[(2-chlorobenzoyl)amino]phenyl]boronic Acid]
1.78 | Nc1cnnc2cc(-c3cc(B(O)O)ccc3OCC3CNC(=O)C3)ccc12 (single isomer, unassigned) [Example 154, [3-(4-aminocinnolin-7-yl)-4-[(5-oxopyrrolidin-3-yl)methoxy]phenyl]boronic Acid]
4.9 | C[C@@H]1C[C@@H](Oc2ccc(B(O)O)cc2-c2ccc3c(N)cnnc3c2)C[C@H](C)O1 [Example 121, [3-(4-aminocinnolin-7-yl)-4-{[(2R,4S,6S)-2,6-dimethyloxan-4-yl]oxy}phenyl]boronic Acid]
8.13 | CCc1ccc(B(O)O)cc1-c1ccc2c(N)nnc(C)c2c1 [Example 12, [3-(1-amino-4-methylphthalazin-6-yl)-4-ethylphenyl]boronic Acid Formic Acid Salt]
1.62 | Nc1cnnc2cc(-c3cc(B(O)O)cc4c3OCC4)ccc12 [Example 138, [7-(4-aminocinnolin-7-yl)-2,3-dihydro-1-benzofuran-5-yl]boronic Acid Formic Acid Salt]

IC50 [nM] | SMILES
1.02 | Cc1nnc(N)c2ccc(-c3ccc4c(c3)B(O)OC(C)C4)cc12 (single isomer, unassigned) [Example 72, 6-(1-hydroxy-3-methyl-3,4-dihydro-2,1-benzoxazonin-7-yl)-4-methylphthalazin-1-amine]
> 25100 | COc1ccc(B(O)O)cc1-c1ccc2ccncc2c1 [Example 161, [3-(isoquinolin-7-yl)-4-methoxyphenyl]boronic Acid]
1.02 | COc1ccc(B(O)O)c(F)c1-c1ccc2c(N)nnc(C)c2c1 [Example 34, [3-(1-amino-4-methylphthalazin-6-yl)-2-fluoro-4-methoxyphenyl]boronic Acid Formic Acid Salt]
1.86 | Cc1cc(OC(F)F)c(-c2ccc3c(N)cnnc3c2)cc1B(O)O [Example 108, [5-(4-aminocinnolin-7-yl)-4-(difluoromethoxy)-2-methylphenyl]boronic Acid]
> 25100 | COc1ccc(B(O)O)cc1-c1ccc2c(O)cnnc2c1 [Example 158, [3-(4-hydroxycinnolin-7-yl)-4-methoxyphenyl]boronic Acid]
1.7 | Cc1nnc(N)c2ccc(-c3cc(B(O)O)ccc3OC(F)(F)F)cc12 [Example 15, [3-(1-amino-4-methylphthalazin-6-yl)-4-(trifluoromethoxy)phenyl]boronic Acid]
1.26 | O=CO.[2H]C([2H])([2H])Oc1ccc(B(O)O)cc1-c1ccc2c(N)cnnc2c1 [Example 159, [3-(4-aminocinnolin-7-yl)-4-(^2H3)methoxyphenyl]boronic Acid Formic Acid Salt]
1.51 | Cc1nnc(N)c2ccc(-c3cccc(B(O)O)c3)cc12 [Example 4, [3-(1-amino-4-methylphthalazin-6-yl)phenyl]boronic Acid]
3.09 | CC(C)C1Cc2ccc(-c3ccc4c(N)cnnc4c3)cc2B(O)O1 (single isomer, unassigned) [Example 152]
3.24 | Cc1nc2c(-c3ccc4c(N)nnc(C)c4c3)cc(B(O)O)cc2o1 [Example 125, [4-(1-amino-4-methylphthalazin-6-yl)-2-methyl-1,3-benzoxazol-6-yl]boronic Acid Formic Acid Salt]
0.661 | Nc1cnnc2cc(-c3cc(B(O)O)ccc3OCCC3CCCO3)ccc12 (centres unmarked) [Example 110, [3-(4-aminocinnolin-7-yl)-4-[2-(oxolan-2-yl)ethoxy]phenyl]boronic Acid]
4.79 | COCCOCCOCCOCCOCCOCCOc1ccc(B(O)O)cc1-c1ccc2c(N)nnc(C)c2c1 [Example 16, [3-(1-amino-4-methylphthalazin-6-yl)-4-[2-[2-[2-[2-[2-(2-methoxyethoxy)ethoxy]ethoxy]ethoxy]ethoxy]ethoxy]phenyl]boronic Acid]
11.7 | Cc1nnc(N)c2ccc(-c3cc(B(O)O)cnc3C(F)(F)F)cc12 [Example 84, [5-(1-amino-4-methylphthalazin-6-yl)-6-(trifluoromethyl)pyridin-3-yl]boronic Acid]
6.31 | COc1ccc(B(O)O)cc1-c1ccc2c(N)nncc2c1 [Example 2, [3-(1-aminophthalazin-6-yl)-4-methoxyphenyl]boronic Acid Formic Acid Salt]
37.2 | Cc1cc2cc(-c3cccc(B(O)O)c3)ccc2c(N)n1 [Example 13, [3-(1-amino-3-methylisoquinolin-6-yl)phenyl]boronic Acid; Trifluoroacetic Acid Salt]

SMILES | IC50 [nM]
Nc1cnnc2cc(-c3cc(B(O)O)ccc3OC3CCC3)ccc12 [Example 117, [3-(4-aminocinnolin-7-yl)-4-cyclobutoxyphenyl]boronic Acid] | 0.708
